The term Ki denotes a measure of affinity in units of concentration, obtained from inhibition or displacement.

Sequence of human factor Xa (P00742 235-488 limits assumed): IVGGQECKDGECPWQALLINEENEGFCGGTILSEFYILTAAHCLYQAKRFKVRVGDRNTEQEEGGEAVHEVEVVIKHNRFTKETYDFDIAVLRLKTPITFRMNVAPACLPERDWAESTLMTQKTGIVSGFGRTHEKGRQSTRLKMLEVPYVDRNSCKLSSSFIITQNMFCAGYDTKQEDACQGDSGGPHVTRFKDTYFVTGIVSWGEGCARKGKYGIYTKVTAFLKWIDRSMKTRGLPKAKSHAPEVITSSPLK
Sequence of human factor Xa (P00742 41-179 partner limits assumed): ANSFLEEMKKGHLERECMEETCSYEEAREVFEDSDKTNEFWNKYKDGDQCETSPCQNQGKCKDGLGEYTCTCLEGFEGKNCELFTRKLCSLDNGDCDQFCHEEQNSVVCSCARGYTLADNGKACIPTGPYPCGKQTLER

The first assay addresses human factor Xa (Homo sapiens, UniProt P00742). Briefly: Factor Xa assay (chromogenic, substrate S-2765).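 Also: purified enzyme preincubated with inhibitor for 10 min before substrate addition, final reaction volume 100 µl.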 Format: biochemical.
Details: not given
`CC(C)N1CCC(NC(=O)c2cc3c(Cl)cccc3n2Cc2cc(-c3ccc(Cl)s3)on2)CC1` [Example 182, 4-Chloro-1-[5-(5-chloro-thiophen-2-yl)-isoxazol-3-ylmethyl]-1H-indole-2-carboxylic acid (1-isopropyl-piperidin-4-yl)-amide] returned an inhibition constant (Ki) of 5 nM.

`O=C(c1cc2ccccc2n1Cc1cc(-c2ccc(Cl)s2)on1)N(c1ccncc1)C1CCN(c2ccncc2)CC1` [Example 204, 1-[5-(5-Chloro-thiophen-2-yl)-isoxazol-3-ylmethyl]-1H-indole-2-carboxylic acid pyridin-4-yl-(3,4,5,6-tetrahydro-2H-[1,4′]bipyridinyl-4-yl)-amide] gave an inhibitory constant (Ki) of 74 nM.

`O=C(c1cc2cc([N+](=O)[O-])ccc2n1Cc1cc(-c2ccc(Cl)s2)on1)N(c1ccncc1)C1CCN(c2ccncc2)CC1` [Example 205, 1-[5-(5-Chloro-thiophen-2-yl)-isoxazol-3-ylmethyl]-5-nitro-1H-indole-2-carboxylic acid pyridin-4-yl-(3,4,5,6-tetrahydro-2H-[1,4′]bipyridinyl-4-yl)-amide]: the inhibitory constant (Ki) amounted to 34 nM.

Staying with this assay, now noted: inhibition constant for factor Xa; purified enzyme 0.5 nM, substrate S-2765 140 μM, 25° C., pH 7.8; Ki=IC50/{1+(substrate concentration/Km)}; read-out: Ki(FXa).
For `CCC(CC)N1CCC(NC(=O)c2cc3ccccc3n2Cc2cc(-c3ccc(Cl)s3)on2)CC1` [Example 186, 1-[5-(5-Chloro-thiophen-2-yl)-isoxazol-3-ylmethyl]-1H-indole-2-carboxylic acid [1-(1-ethyl-propyl)-piperidin-4-yl]-amide], the inhibitory constant (Ki) worked out at 220 nM.

With `CN1CCC(NC(=O)c2cc3ccccc3n2Cc2cc(-c3ccc(Cl)s3)on2)CC1` [Example 187, 1-[5-(5-Chloro-thiophen-2-yl)-isoxazol-3-ylmethyl]-1H-indole-2-carboxylic acid (1-methyl-piperidin-4-yl)-amide], the Ki stood at 40 nM.

As to `NC(=O)N1CCC(NC(=O)c2cc3ccccc3n2Cc2cc(-c3ccc(Cl)s3)on2)CC1` [Example 190, 1-[5-(5-Chloro-thiophen-2-yl)-isoxazol-3-ylmethyl]-1H-indole-2-carboxylic acid (1-carbamoyl-piperidin-4-yl)-amide], the inhibitory constant (Ki) worked out at 1080 nM.

Take `CC(=O)N1CCC(NC(=O)c2cc3ccccc3n2Cc2cc(-c3ccc(Cl)s3)on2)CC1` [Example 192, 1-[5-(5-Chloro-thiophen-2-yl)-isoxazol-3-ylmethyl]-1H-indole-2-carboxylic acid (1-acetyl-piperidin-4-yl)-amide]: the Ki was 763 nM.

In the case of `O=C(NC1CCN(c2ccncn2)CC1)c1cc2ccccc2n1Cc1cc(-c2ccc(Cl)s2)on1` [Example 194, 1-[5-(5-Chloro-thiophen-2-yl)-isoxazol-3-ylmethyl]-1H-indole-2-carboxylic acid (1-pyrimidin-4-yl-piperidin-4-yl)-amide], the inhibitory constant (Ki) amounted to 95 nM.

For `CC(C)CN1CCC(NC(=O)c2cc3ccccc3n2Cc2cc(-c3ccc(Cl)s3)on2)CC1` [Example 199, 1-[5-(5-Chloro-thiophen-2-yl)-isoxazol-3-ylmethyl]-1H-indole-2-carboxylic acid (1-isobutyl-piperidin-4-yl)-amide], the Ki came out at 142 nM.

Consider `CCCN1CCC(NC(=O)c2cc3ccccc3n2Cc2cc(-c3ccc(Cl)s3)on2)CC1` [Example 200], for which the Ki is 64 nM.

On to `CC(C)N1CCC(NC(=O)c2cc3ccccc3n2Cc2cc(-c3ccc(Cl)cc3)no2)CC1` [Example 211, 1-[3-(4-Chloro-phenyl)-isoxazol-5-ylmethyl]-1H-indole-2-carboxylic acid (1-isopropyl-piperidin-4-yl)-amide], for which the Ki was 400 nM.

In the case of `CC(C)N1CCC(NC(=O)c2cc3ccccc3n2Cc2cc(-c3ccc(Cl)cc3)on2)CC1` [Example 212, 1-[5-(4-Chloro-phenyl)-isoxazol-3-ylmethyl]-1H-indole-2-carboxylic acid (1-isopropyl-piperidin-4-yl)-amide], the Ki was 810 nM.

On to `CC(C)N1CCC(NC(=O)c2cc3ccccc3n2Cc2nc(-c3ccc(Cl)cc3)no2)CC1` [Example 213, 1-[3-(4-Chloro-phenyl)-[1,2,4]oxadiazol-5-ylmethyl]-1H-indole-2-carboxylic acid (1-isopropyl-piperidin-4-yl)-amide], for which the inhibitory constant (Ki) was found to be 2230 nM.

Staying with this assay, now noted: read-out: Ki(FXa).
For `COc1ccc(OC)c2c1cc(C(=O)NC1CCN(C(C)C)CC1)n2Cc1cc(-c2ccc(Cl)s2)on1` [Example 179, 1-[5-(5-Chloro-thiophen-2-yl)-isoxazol-3-ylmethyl]-4,7-dimethoxy-1H-indole-2-carboxylic acid (1-isopropyl-piperidin-4-yl)-amide], the Ki came to 5.5 nM.

Consider `CC(C)N1CCC(NC(=O)c2cc3c(Cl)ccc(Cl)c3n2Cc2cc(-c3ccc(Cl)s3)on2)CC1` [Example 180, 4,7-Dichloro-1-[5-(5-chloro-thiophen-2-yl)-isoxazol-3-ylmethyl]-1H-indole-2-carboxylic acid (1-isopropyl-piperidin-4-yl)-amide], for which the inhibition constant Ki amounted to 24 nM.

Turning to `CC(C)N1CCC(NC(=O)c2cc3cc(Cl)cc(Cl)c3n2Cc2cc(-c3ccc(Cl)s3)on2)CC1` [Example 181, 5,7-Dichloro-1-[5-(5-chloro-thiophen-2-yl)-isoxazol-3-ylmethyl]-1H-indole-2-carboxylic acid (1-isopropyl-piperidin-4-yl)-amide], the Ki was 14 nM.

In the case of `CN1CCN(NC(=O)c2cc3ccccc3n2Cc2cc(-c3ccc(Cl)s3)on2)CC1` [Example 183, 1-[5-(5-Chloro-thiophen-2-yl)-isoxazol-3-ylmethyl]-1H-indole-2-carboxylic acid (4-methyl-piperazin-1-yl)-amide], the Ki turned out to be 76 nM.

Turning to `CCOC(=O)CN(C(=O)c1cc2cccc(C)c2n1Cc1cc(-c2ccc(Cl)s2)on1)C1CCN(C(C)C)CC1` [Example 184, [{1-[5-(5-Chloro-thiophen-2-yl)-isoxazol-3-ylmethyl]-7-methyl-1H-Indole-2-carbonyl}-(1-isopropyl-piperidin-4-yl)-amino]-acetic acid ethyl ester], the inhibitory constant (Ki) turned out to be 13 nM.

With `Cc1cccc2cc(C(=O)N(CC(=O)O)C3CCN(C(C)C)CC3)n(Cc3cc(-c4ccc(Cl)s4)on3)c12` [Example 185, [{1-[5-(5-Chloro-thiophen-2-yl)-isoxazol-3-ylmethyl]-7-methyl-1H-indole-2-carbonyl}-(1-isopropyl-piperidin-4-yl)-amino]-acetic acid], the Ki turned out to be 5 nM.

As for `O=C(NC1CCN(CC(F)(F)F)CC1)c1cc2ccccc2n1Cc1cc(-c2ccc(Cl)s2)on1` [Example 188, 1-[5-(5-Chloro-thiophen-2-yl)-isoxazol-3-ylmethyl]-1H-indole-2-carboxylic acid [1-(2,2,2-trifluoro-ethyl)-piperidin-4-yl]-amide], the Ki amounted to 1030 nM.

`O=CN1CCC(NC(=O)c2cc3ccccc3n2Cc2cc(-c3ccc(Cl)s3)on2)CC1` [Example 189, 1-[5-(5-Chloro-thiophen-2-yl)-isoxazol-3-ylmethyl]-1H-indole-2-carboxylic acid (1-formyl-piperidin-4-yl)-amide]: the inhibitory constant (Ki) came to 2020 nM.

For the molecule `CS(=O)(=O)N1CCC(NC(=O)c2cc3ccccc3n2Cc2cc(-c3ccc(Cl)s3)on2)CC1` [Example 191, 1-[5-(5-Chloro-thiophen-2-yl)-isoxazol-3-ylmethyl]-1H-indole-2-carboxylic acid (1-methanesulfonyl-piperidin-4-yl)-amide], the Ki was 136 nM.

With `O=C(NC1CCN(c2ccnc(Cl)n2)CC1)c1cc2ccccc2n1Cc1cc(-c2ccc(Cl)s2)on1` [Example 193, 1-[5-(5-Chloro-thiophen-2-yl)-isoxazol-3-ylmethyl]-1H-indole-2-carboxylic acid [1-(2-chloro-pyrimidin-4-yl)-piperidin-4-yl]-amide], the Ki was found to be 199 nM.

As to `COC(=O)N1CCC(NC(=O)c2cc3ccccc3n2Cc2cc(-c3ccc(Cl)s3)on2)CC1` [Example 201, 4-({1-[5-(5-Chloro-thiophen-2-yl)-isoxazol-3-ylmethyl]-1H-indole-2-carbonyl}-amino)-piperidine-1-carboxylic acid methyl ester], the Ki was 1780 nM.

Take `CC(C)N1CCN(NC(=O)c2cc3ccccc3n2Cc2cc(-c3ccc(Cl)s3)on2)CC1` [Example 202, 1-[5-(5-Chloro-thiophen-2-yl)-isoxazol-3-ylmethyl]-1H-indole-2-carboxylic acid (4-isopropyl-piperazin-1-yl)-amide]: the inhibitory constant (Ki) worked out at 20 nM.

For `CCN1CCN(NC(=O)c2cc3ccccc3n2Cc2cc(-c3ccc(Cl)s3)on2)CC1` [Example 203, 1-[5-(5-Chloro-thiophen-2-yl)-isoxazol-3-ylmethyl]-1H-indole-2-carboxylic acid (4-ethyl-piperazin-1-yl)-amide], the Ki is 28 nM.

In the case of `N#Cc1c(C(=O)NC2CCN(c3ccncc3)CC2)n(Cc2cc(-c3ccc(Cl)s3)on2)c2ccccc12` [Example 206, 1-[5-(5-Chloro-thiophen-2-yl)-isoxazol-3-ylmethyl]-3-cyano-1H-indole-2-carboxylic acid (3,4,5,6-tetrahydro-2H-[1,4′]bipyridinyl-4-yl)-amide], the inhibition constant Ki was found to be 12 nM.

Turning to `COc1ccc(C#N)c2c1c(C#N)c(C(=O)NC1CCN(C(C)C)CC1)n2Cc1cc(-c2ccc(Cl)s2)on1` [Example 208, 1-[5-(5-Chloro-thiophen-2-yl)-isoxazol-3-ylmethyl]-3,7-dicyano-4-methoxy-1H-indole-2-carboxylic acid (1-isopropyl-piperidin-4-yl)-amide], the inhibitory constant (Ki) turned out to be 1 nM.

As for `CC(C)N1CCC(NC(=O)c2cc3ccccc3n2Cc2cc3ccc(Cl)cc3c(Cl)n2)CC1` [Example 210, 1-(1,7-Dichloro-isoquinolin-3-ylmethyl)-1H-indole-2-carboxylic acid (1-isopropyl-piperidin-4-yl)-amide], the Ki is 79 nM.

For the molecule `CC(C)N1CCC(NC(=O)c2cc3cc(S(C)(=O)=O)ccc3n2CC(=O)Nc2ccc(Cl)cn2)CC1` [Example 214, 1-[(5-Chloro-pyridin-2-ylcarbamoyl)-methyl]-5-methanesulfonyl-1H-indole-2-carboxylic acid (1-isopropyl-piperidin-4-yl)-amide], the inhibition constant (Ki) is 52 nM.

The values above are taken from patent publication US20090069565A1, “NEW INDOLE DERIVATIVES AS FACTOR XA INHIBITORS” (priority 2001, published 2009).
